Experimental data: patent US8283361B2 (AstraZeneca AB, priority 2008, dated 2012)
“And” between values parts separate entries of the source, which are not always exact repeats. Identical values can stand only once. Counter-ions that a name gives are not always drawn.

Each compound was assayed against S. aureus GyrB ATPase (Staphylococcus aureus, UniProt P0A0K8) (assay: biochemical). Details: compound at 1 μM; one value per test if tested more than once; 1 µM.
S. aureus GyrB ATPase, sequence (P0A0K8 whole entry): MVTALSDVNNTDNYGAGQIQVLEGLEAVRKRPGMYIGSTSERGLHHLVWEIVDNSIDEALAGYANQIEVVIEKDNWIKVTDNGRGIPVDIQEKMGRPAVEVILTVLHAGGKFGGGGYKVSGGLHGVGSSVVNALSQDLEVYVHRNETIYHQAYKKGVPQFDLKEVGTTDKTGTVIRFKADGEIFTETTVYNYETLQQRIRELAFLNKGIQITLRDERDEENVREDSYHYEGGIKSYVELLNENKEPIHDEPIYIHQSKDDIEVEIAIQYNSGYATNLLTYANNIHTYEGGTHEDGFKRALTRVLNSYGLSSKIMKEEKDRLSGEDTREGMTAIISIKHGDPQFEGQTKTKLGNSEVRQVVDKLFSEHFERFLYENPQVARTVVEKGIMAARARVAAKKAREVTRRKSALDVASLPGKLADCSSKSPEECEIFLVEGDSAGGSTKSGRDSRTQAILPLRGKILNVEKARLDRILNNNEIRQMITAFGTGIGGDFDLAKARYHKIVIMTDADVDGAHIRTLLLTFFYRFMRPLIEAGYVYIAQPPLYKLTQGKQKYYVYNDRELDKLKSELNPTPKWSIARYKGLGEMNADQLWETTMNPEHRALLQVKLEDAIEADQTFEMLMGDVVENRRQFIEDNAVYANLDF
S. aureus GyrB ATPase, sequence (P0AES4 whole entry, further chain): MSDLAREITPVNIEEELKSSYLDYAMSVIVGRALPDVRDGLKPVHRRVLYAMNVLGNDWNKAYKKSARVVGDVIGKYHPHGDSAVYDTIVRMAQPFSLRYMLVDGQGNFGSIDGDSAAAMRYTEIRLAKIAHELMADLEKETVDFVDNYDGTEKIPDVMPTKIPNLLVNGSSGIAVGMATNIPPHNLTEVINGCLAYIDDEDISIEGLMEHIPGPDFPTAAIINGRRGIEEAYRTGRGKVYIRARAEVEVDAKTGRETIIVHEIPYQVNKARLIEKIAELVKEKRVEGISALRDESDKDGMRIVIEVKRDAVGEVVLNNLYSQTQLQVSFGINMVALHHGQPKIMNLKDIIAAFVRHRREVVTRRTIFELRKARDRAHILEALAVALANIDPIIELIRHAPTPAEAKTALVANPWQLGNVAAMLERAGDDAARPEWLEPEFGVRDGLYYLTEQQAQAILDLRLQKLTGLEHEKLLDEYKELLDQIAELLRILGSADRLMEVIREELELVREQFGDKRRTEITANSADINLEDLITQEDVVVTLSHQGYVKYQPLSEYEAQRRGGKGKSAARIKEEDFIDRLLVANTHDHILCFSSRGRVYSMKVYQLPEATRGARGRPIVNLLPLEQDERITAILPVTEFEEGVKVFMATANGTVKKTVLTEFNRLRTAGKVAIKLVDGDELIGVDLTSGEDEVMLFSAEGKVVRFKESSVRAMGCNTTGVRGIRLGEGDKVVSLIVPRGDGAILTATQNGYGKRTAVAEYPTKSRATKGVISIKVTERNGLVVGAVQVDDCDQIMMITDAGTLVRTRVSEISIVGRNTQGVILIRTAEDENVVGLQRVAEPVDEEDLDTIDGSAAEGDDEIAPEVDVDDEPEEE
How it was run: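 IC50 values derive from 10-point titrations of compound (in DMSO). Phosphate formed from 250 μM ATP was quantified by acidic molybdate/malachite green after quenching.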
For `CCNC(=O)Nc1cc(-c2nc(C(F)(F)F)cs2)c(-c2ccc3c(c2)c(=O)c(C(=O)O)cn3CC2COCCN2)cn1` (centres unmarked) [Example 294], the “% Inhibition of S. aureus GyrB ATPase” value was 109%. `CCNC(=O)Nc1cc(-c2nc(C(F)(F)F)cs2)c(-c2ccc3c(c2)c(=O)c(C(=O)O)cn3CC2CCN(CCN3CCOCC3)C2)cn1` (centres unmarked) [Example 306, 6-(6-(3-ethylureido)-4-(4-(trifluoromethyl)thiazol-2-yl)pyridin-3-yl)-1-((1-(2-morpholinoethyl)pyrrolidin-3-yl)methyl)-4-oxo-1,4-dihydroquinoline-3-carboxylic acid] was tested, and the “% Inhibition of S. aureus GyrB ATPase” value was 100% and 102%.

Same assay, conditions: compound at 1 μM; one value per test if tested more than once; read-out: % Inhibition of S. aureus GyrB ATPase
`CCNC(=O)Nc1cc(-c2nc(C(F)(F)F)cs2)c(-c2ccc3c(c2)c(=O)c(C(=O)O)cn3[C@H]2CCCN(CCN3CCOCC3)C2)cn1` [Example 284, (S)-ethyl 6-(6-(3-ethylureido)-4-(4-(trifluoromethyl)thiazol-2-yl)pyridin-3-yl)-1-(1-(2-morpholinoethyl)piperidin-3-yl)-4-oxo-1,4-dihydroquinoline-3-carboxylic acid] was tested, and the inhibition at 1 µM was 107%. `CCNC(=O)Nc1cc(-c2nc(C(F)(F)F)cs2)c(-c2ccc3c(c2)c(=O)c(C(=O)O)cn3[C@@H]2CCCN(CCN3CCOCC3)C2)cn1` [Example 285, (R)-ethyl 6-(6-(3-ethylureido)-4-(4-(trifluoromethyl)thiazol-2-yl)pyridin-3-yl)-1-(1-(2-morpholinoethyl)piperidin-3-yl)-4-oxo-1,4-dihydroquinoline-3-carboxylic acid] gave an inhibition at 1 µM of 105%. Compound `CCNC(=O)Nc1cc(-c2nc(C(F)(F)F)cs2)c(-c2ccc3c(c2)c(=O)c(C(=O)O)cn3[C@@H]2CCCN(CC(C)(C)C)C2)cn1` [Example 286] has an inhibition at 1 µM of 102%. `CCNC(=O)Nc1cc(-c2nc(C(F)(F)F)cs2)c(-c2ccc3c(c2)c(=O)c(C(=O)O)cn3[C@H]2CCCN(CCN(CC)CC)C2)cn1` [Example 287, (S)-ethyl 1-(1-(2-(diethylamino)ethyl)piperidin-3-yl)-6-(6-(3-ethylureido)-4-(4-(trifluoromethyl)thiazol-2-yl)pyridin-3-yl)-4-oxo-1,4-dihydroquinoline-3-carboxylic acid trifluoroacetate] gave an inhibition at 1 µM of 100%. For `CCNC(=O)Nc1cc(-c2nc(C(F)(F)F)cs2)c(-c2ccc3c(c2)c(=O)c(C(=O)O)cn3[C@@H]2CCCN(CCN(CC)CC)C2)cn1` [Example 288, (S)-ethyl 1-(1-(2-(diethylamino)ethyl)piperidin-3-yl)-6-(6-(3-ethylureido)-4-(4-(trifluoromethyl)thiazol-2-yl)pyridin-3-yl)-4-oxo-1,4-dihydroquinoline-3-carboxylic acid trifluoroacetate], the inhibition at 1 µM was 99%. For `CCNC(=O)Nc1cc(-c2nc(C(F)(F)F)cs2)c(-c2ccc3c(c2)c(=O)c(C(=O)O)cn3[C@H]2CCCN(CC(C)(C)CN3CCOCC3)C2)cn1` [Example 289, (S)-1-(1-(2,2-dimethyl-3-morpholinopropyl)piperidin-3-yl)-6-(6-(3-ethylureido)-4-(4-(trifluoromethyl)thiazol-2-yl)pyridin-3-yl)-4-oxo-1,4-dihydroquinoline-3-carboxylic acid], the inhibition at 1 µM was 103%. `CCNC(=O)Nc1cc(-c2nc(C(F)(F)F)cs2)c(-c2ccc3c(c2)c(=O)c(C(=O)O)cn3[C@@H]2CCCN(CC(C)(C)CN3CCOCC3)C2)cn1` [Example 290, (R)-1-(1-(2,2-dimethyl-3-morpholinopropyl)piperidin-3-yl)-6-(6-(3-ethylureido)-4-(4-(trifluoromethyl)thiazol-2-yl)pyridin-3-yl)-4-oxo-1,4-dihydroquinoline-3-carboxylic acid] was tested, and the inhibition at 1 µM was 100%. With `CCNC(=O)Nc1cc(-c2nc(C(F)(F)F)cs2)c(-c2ccc3c(c2)c(=O)c(C(=O)O)cn3[C@H]2CCCN(CCO)C2)cn1` [Example 291, (S)-6-(6-(3-ethylureido)-4-(4-(trifluoromethyl)thiazol-2-yl)pyridin-3-yl)-1-(1-(2-hydroxyethyl)piperidin-3-yl)-4-oxo-1,4-dihydroquinoline-3-carboxylic acid] the inhibition at 1 µM was 107%. Compound `CCNC(=O)Nc1cc(-c2nc(C(F)(F)F)cs2)c(-c2ccc3c(c2)c(=O)c(C(=O)O)cn3[C@@H]2CCCN(CCO)C2)cn1` [Example 292, (R)-6-(6-(3-ethylureido)-4-(4-(trifluoromethyl)thiazol-2-yl)pyridin-3-yl)-1-(1-(2-hydroxyethyl)piperidin-3-yl)-4-oxo-1,4-dihydroquinoline-3-carboxylic acid] has an inhibition at 1 µM of 102%. `CCNC(=O)Nc1cc(-c2nc(C(F)(F)F)cs2)c(-c2ccc3c(c2)c(=O)c(C(=O)O)cn3CC2COCCN2)cn1` (centres unmarked) [Example 293] was tested, and the inhibition at 1 µM was 106%. Work on `CCNC(=O)Nc1cc(-c2nc(C(F)(F)F)cs2)c(-c2ccc3c(c2)c(=O)c(C(=O)O)cn3CC2CCN(CC)C2)cn1` (centres unmarked) [Example 305, 1-((1-ethylpyrrolidin-3-yl)methyl)-6-(6-(3-ethylureido)-4-(4-(trifluoromethyl)thiazol-2-yl)pyridin-3-yl)-4-oxo-1,4-dihydroquinoline-3-carboxylic acid] yielded an inhibition at 1 µM of 103%. With `CCNC(=O)Nc1cc(-c2nc(C(F)(F)F)cs2)c(-c2ccc3c(c2)c(=O)c(C(=O)O)cn3CC2CCN(CCN3CCOCC3)C2)cn1` (centres unmarked) [Example 306, 6-(6-(3-ethylureido)-4-(4-(trifluoromethyl)thiazol-2-yl)pyridin-3-yl)-1-((1-(2-morpholinoethyl)pyrrolidin-3-yl)methyl)-4-oxo-1,4-dihydroquinoline-3-carboxylic acid] the inhibition at 1 µM was 105%. `CCNC(=O)Nc1cc(-c2nc(C(F)(F)F)cs2)c(-c2ccc3c(c2)c(=O)c(C(=O)O)cn3CC2CCN(CC3CCCO3)C2)cn1` (centres unmarked) [Example 307, 6-(6-(3-ethylureido)-4-(4-(trifluoromethyl)thiazol-2-yl)pyridin-3-yl)-4-oxo-1-((1-((tetrahydrofuran-2-yl)methyl)pyrrolidin-3-yl)methyl)-1,4-dihydroquinoline-3-carboxylic acid] gave an inhibition at 1 µM of 105%. Compound `CCNC(=O)Nc1cc(-c2nc(C(F)(F)F)cs2)c(-c2ccc3c(c2)c(=O)c(C(=O)O)cn3CC2CCN(CCO)C2)cn1` (centres unmarked) [Example 308, 6-(6-(3-ethylureido)-4-(4-(trifluoromethyl)thiazol-2-yl)pyridin-3-yl)-1-((1-(2-hydroxyethyl)pyrrolidin-3-yl)methyl)-4-oxo-1,4-dihydroquinoline-3-carboxylic acid hydrochloride] has an inhibition at 1 µM of 111%. `CCNC(=O)Nc1cc(-c2nc(C(F)(F)F)cs2)c(-c2ccc3c(c2)c(=O)c(C(=O)O)cn3C2CCCN(Cc3ccncc3)C2)cn1` (centres unmarked) [Example 309, 6-(6-(3-ethylureido)-4-(4-(trifluoromethyl)thiazol-2-yl)pyridin-3-yl)-4-oxo-1-(1-(pyridin-4-ylmethyl)piperidin-3-yl)-1,4-dihydroquinoline-3-carboxylic acid] was tested, and the inhibition at 1 µM was 109%. `CCNC(=O)Nc1cc(-c2nc(C(F)(F)F)cs2)c(-c2ccc3c(c2)c(=O)c(C(=O)O)cn3C2CCCN(C)C2)cn1` (centres unmarked) [Example 311, 6-(6-(3-ethylureido)-4-(4-(trifluoromethyl)thiazol-2-yl)pyridin-3-yl)-1-(1-methylpiperidin-3-yl)-4-oxo-1,4-dihydroquinoline-3-carboxylic acid] gave an inhibition at 1 µM of 100%. With `CCNC(=O)Nc1cc(-c2nc(C(F)(F)F)cs2)c(-c2ccc3c(c2)c(=O)c(C(=O)O)cn3[C@H]2CCN(C)C2)cn1` [Example 312, (S)-6-(6-(3-ethylureido)-4-(4-(trifluoromethyl)thiazol-2-yl)pyridin-3-yl)-1-(1-methylpyrrolidin-3-yl)-4-oxo-1,4-dihydroquinoline-3-carboxylic acid] the inhibition at 1 µM was 105%. For `CCNC(=O)Nc1cc(-c2nc(C(F)(F)F)cs2)c(-c2ccc3c(c2)c(=O)c(C(=O)O)cn3CC2CCCN(C)C2)cn1` (centres unmarked) [Example 313, 6-(6-(3-ethylureido)-4-(4-(trifluoromethyl)thiazol-2-yl)pyridin-3-yl)-1-((1-methylpiperidin-3-yl)methyl)-4-oxo-1,4-dihydroquinoline-3-carboxylic acid], the inhibition at 1 µM was 103%. With `CCNC(=O)Nc1cc(-c2nc(C(F)(F)F)cs2)c(-c2ccc3c(c2)c(=O)c(C(=O)O)cn3[C@H]2CCCC[C@@H]2N)cn1` [Example 314, 1-((1S,2S)-2-aminocyclohexyl)-6-(6-(3-ethylureido)-4-(4-(trifluoromethyl)thiazol-2-yl)pyridin-3-yl)-4-oxo-1,4-dihydroquinoline-3-carboxylic acid] the inhibition at 1 µM was 114%. In the case of `CCNC(=O)Nc1cc(-c2nc(C(F)(F)F)cs2)c(-c2ccc3c(c2)c(=O)c(C(=O)O)cn3CCCO)cn1` [Example 320, 6-(6-(3-Ethylureido)-4-(4-(trifluoromethyl)thiazol-2-yl)pyridin-3-yl)-1-(3-hydroxy-propyl)-4-oxo-1,4-dihydro-quinoline-3-carboxylic acid], the inhibition at 1 µM was 98%. Work on `CCNC(=O)Nc1cc(-c2nc(C(F)(F)F)cs2)c(-c2ccc3c(c2)c(=O)c(C(=O)O)cn3C2CCOCC2)cn1` [Example 321, 6-(6-(3-Ethylureido)-4-(4-(trifluoromethyl)thiazol-2-yl)-pyridin-3-yl)-4-oxo-1-(tetrahydro-2H-pyran-4-yl)-1,4dihydroquinoline-3-carboxylic acid] yielded an inhibition at 1 µM of 100%. `CCNC(=O)Nc1cc(-c2nc(C(F)(F)F)cs2)c(-c2ccc3c(c2)c(=O)c(C(=O)O)cn3C2CCCCC2)cn1` [Example 322, 1-Cyclohexyl-6-(6-(3-ethylureido)-4-(4-(trifluoro-methyl)thiazol-2-yl)pyridin-3-yl)-4-oxo-1,4-dihydroquinoline-3-carboxylic acid] showed an inhibition at 1 µM of 96%. In the case of `CCNC(=O)Nc1cc(-c2nc(C(F)(F)F)cs2)c(-c2ccc3c(c2)c(=O)c(C(=O)O)cn3C2CCN(C)CC2)cn1` [Example 323, 6-(6-(3-Ethylureido)-4-(4-(trifluoromethyl)thiazol-2-yl)pyridin-3-yl)-1-(1-methyl-piperidin-4-yl)-4-oxo-1,4-dihydro-quinoline-3-carboxylic acid], the inhibition at 1 µM was 106%. For `CCNC(=O)Nc1cc(-c2nc(C(F)(F)F)cs2)c(-c2ccc3c(c2)c(=O)c(C(=O)NCCOC)cn3C2CC2)cn1` [Example 325, 1-Cyclopropyl-6-(6-(3-ethylureido)-4-(4-(trifluoromethyl)thiazol-2-yl)pyridin-3-yl)-N-(2-methoxyethyl)-4-oxo-1,4-dihydroquinoline-3-carboxamide], the inhibition at 1 µM was 96%.
